# According to ChEMBL document CHEMBL5729293, “Inhibitors of KEAP1-Nrf2 protein-protein interaction” (2022):
# Assay: Fluorescence Based Assay: The details of the KEAP1 KELCH ThermoFluor® Assay Construct are as follows: Kelch domain of human KEAP 1 (321-624 aa) was used in the assay. The protein was expressed in E. coli with 6His tag that was cleaved prior to receipt for use.ThermoFluor® experiments were carried out using instruments owned by Janssen Research and Discovery, L.L.C. through its acquisition of 3-Dimensional Pharmaceuticals, Inc. 1,8-ANS (Invitrogen) was used as a fluorescent dye. Protein (KEAP Kelch) and compound solutions were dispensed into black 384-well polypropylene PCR microplates (Abgene) and overlayed with silicone oil (1 μL, Fluka, type DC 200) to prevent evaporation.Reference wells contained KEAP Kelch without compounds, and the assay conditions were as follows: 1.1 μM (0.037mg/mL) KEAP Kelch, 80 μM 1,8-ANS, 25 mM PIPES, pH 7.0, 100 mM NaCl, 0.002% Tween-20.
row,Compound,Kd
1,Cc1ccc([C@@H](c2ccn3c(C(F)(F)F)nnc3c2C)C(C)(C)C(=O)O)cc1CN1C[C@H]2CCCCN2c2ncc(C#N)cc2S1(=O)=O,< 1 nM
2,Cc1ccc(C(CC(=O)O)c2ccn3c(C(F)(F)F)nnc3c2C)nc1CN1CC2(CC2)Oc2ncc(F)cc2S1(=O)=O (stereo unspecified),< 1 nM
3,Cc1ccc([C@H](CC(=O)O)c2ccn3c(C(F)(F)F)nnc3c2C)cc1CN1CC2(COC2)Oc2ncccc2S1(=O)=O,< 1 nM
4,CCc1c([C@@H](CC(=O)O)c2ccc(C)c(CN3C[C@H]4CCCCN4c4ncc(C)cc4S3(=O)=O)c2)ccn2c(C(F)(F)F)nnc12,< 1 nM
5,Cc1ccc([C@H](CC(=O)O)c2ccn3c(C(F)F)nnc3c2C)cc1CN1C[C@@H]2COCCN2c2ncccc2S1(=O)=O,< 1 nM
6,Cc1cc2cc([C@H](CC(=O)O)c3ccc(C)c(CN4C[C@H]5CCCN5c5ncccc5S4(=O)=O)c3)n(C)c2nn1,< 1 nM
7,Cc1ccc([C@@H](CC(=O)O)c2ccn3c(C(F)F)nnc3c2C)cc1CN1CC2(CC2)Oc2ncc(F)cc2S1(=O)=O,< 1 nM
8,Cc1ccc([C@H](CC(=O)O)c2ccn3c(C(F)F)nnc3c2C)cc1CN1C[C@@H]2CCCN2c2ncc(C#N)cc2S1(=O)=O,< 1 nM
9,Cc1ccc(C(CC(=O)O)c2ccn3c(C(F)F)nnc3c2C)cc1CN1CC2(CC2)Oc2ncccc2S1(=O)=O (stereo unspecified),< 1 nM
10,Cc1ccc(C(CC(=O)O)c2ccn3c(C(F)(F)F)nnc3c2C)nc1CN1CC2(CC2)Oc2ncccc2S1(=O)=O (stereo unspecified),< 1 nM
11,Cc1ccc2c(n1)OC1(CC1)CN(Cc1cc([C@H](CC(=O)O)c3ccn4c(C(F)(F)F)nnc4c3C)ccc1C)S2(=O)=O,< 1 nM
12,Cc1ccc([C@H](CC(=O)O)c2ccn3c(C(F)(F)F)nnc3c2C)cc1CN1C[C@H]2CCCN2c2ncc(C#N)cc2S1(=O)=O,< 1 nM
13,Cc1cnc2c(c1)S(=O)(=O)N(Cc1cc([C@@H](c3ccn4c(C(F)F)nnc4c3C)C(C)(C)C(=O)O)ccc1C)CC1(CC1)O2,< 1 nM
14,Cc1ncc([C@@H](c2ccc3c(nnn3C3CC3)c2C)C(C)(C)C(=O)O)cc1CN1CC2(COC2)Oc2ncccc2S1(=O)=O,< 1 nM
15,Cc1ccc(C(c2ccn3c(C(F)(F)F)nnc3c2C)C(C)C(=O)O)cc1CN1C[C@@H]2CCCCN2c2ncccc2S1(=O)=O (stereo partly specified),< 1 nM
16,Cc1cnc2c(c1)S(=O)(=O)N(Cc1cc([C@@H](c3ccn4c(C(F)(F)F)nnc4c3C)C(C)(C)C(=O)O)ccc1C)CC1(CC1)O2,< 1 nM
17,COC1CCN(CCOc2nc3c(cc2C)S(=O)(=O)N(Cc2cc([C@@H](c4ccn5c(C(F)(F)F)nnc5c4C)C(C)(C)C(=O)O)ccc2C)CC2(CC2)O3)CC1,< 1 nM
18,Cc1ccc([C@@H](c2ccn3c(C(F)F)nnc3c2C)C(C)(C)C(=O)O)cc1CN1CC2(CC2)Oc2nc(OCCN3CCCC3)c(C)cc2S1(=O)=O,< 1 nM
19,Cc1ccc([C@H](c2ccn3c(C(F)(F)F)nnc3c2C)C(C)(C)C(=O)O)cc1CN1CC2(CCOCC2)Oc2nc(NC(C)CN3CCCCC3)c(C)cc2S1(=O)=O (stereo partly specified),< 1 nM
20,Cc1ccc([C@H](c2ccn3c(C(F)(F)F)nnc3c2C)C(C)(C)C(=O)O)cc1CN1CC2(CCOCC2)Oc2nc(NCCN3CCNCC3)c(C)cc2S1(=O)=O,< 1 nM
21,CCn1nnc2c(C)c([C@@H](CC(=O)O)c3ccc(C)c(CN4C[C@H]5CCCN5c5ccccc5S4(=O)=O)c3)ccc21,< 1 nM
22,Cc1ccc([C@@H](c2ccn3c(C(F)(F)F)nnc3c2C)C(C)(C)C(=O)O)cc1CN1CC2(CCOCC2)Oc2nc(OCCN3CCCCC3)c(C)cc2S1(=O)=O,< 1 nM

row,Compound,Kd
1,Cc1ccc(C(CC(=O)O)c2ccn3c(C(F)F)nnc3c2C)cc1CN1C[C@H]2CCCN2c2ncccc2S1(=O)=O (stereo partly specified),< 1 nM
2,Cc1cnc([C@@H](c2ccn3c(C(F)F)nnc3c2C)C(C)(C)C(=O)O)cc1CN1CC2(CC2)Oc2nc(OCCN3CCCCC3)c(C)cc2S1(=O)=O,< 1 nM
3,Cc1ccc([C@H](CC(=O)O)c2ccc3c(nnn3C3CC3)c2C)cc1CN1C[C@H]2CCCCN2c2ncccc2S1(=O)=O,< 1 nM
4,Cc1ccc([C@H](CC(=O)O)c2ccn3c(C(F)(F)F)nnc3c2C)cc1CN1C[C@@H]2CCCCN2c2ncccc2S1(=O)=O,< 1 nM
5,Cc1ccc([C@@H](c2ccn3c(C(F)F)nnc3c2C)C(C)(C)C(=O)O)cc1CN1CC2(CCOCC2)Oc2nc(OCCN3CCCC3)c(C)cc2S1(=O)=O,< 1 nM
6,Cc1ccc([C@H](c2ccn3c(C(F)(F)F)nnc3c2C)C(C)(C)C(=O)O)cc1CN1CC2(CCOCC2)Oc2nc(N[C@@H](C)CN3CCOCC3)c(C)cc2S1(=O)=O,< 1 nM
7,Cc1c([C@@H](CC(=O)O)c2ccc(Cl)c(CN3CC4CCCCN4c4ncc(F)cc4S3(=O)=O)c2)ccn2c(C(F)(F)F)nnc12 (stereo partly specified),< 1 nM
8,Cc1c([C@@H](CC(=O)O)c2ccc(Cl)c(CN3CC4CCCCN4c4ncccc4S3(=O)=O)c2)ccn2c(C(F)(F)F)nnc12 (stereo partly specified),< 1 nM
9,Cc1ccc([C@H](CC(=O)O)c2ccn3c(C(F)(F)F)nnc3c2C)cc1CN1C[C@@H]2CCCCN2c2ncc(C#N)cc2S1(=O)=O,< 1 nM
10,CC[C@@H]1CN(Cc2cc(C(CC(=O)O)c3ccn4c(C)nnc4c3)ccc2C)S(=O)(=O)c2cccnc2O1 (stereo partly specified),< 1 nM
11,Cc1c(C(CC(=O)O)c2ccc(Cl)c(CN3CC4CCCCN4c4ncc(F)cc4S3(=O)=O)c2)ccn2c(C(F)(F)F)nnc12 (stereo unspecified),< 1 nM
12,Cc1ccc([C@H](c2ccn3c(C(F)(F)F)nnc3c2C)C(C)(C)C(=O)O)cc1CN1C[C@]2(CCOC2)Oc2ncccc2S1(=O)=O,< 1 nM
13,Cc1cnc([C@@H](c2ccn3c(C(F)(F)F)nnc3c2C)C(C)(C)C(=O)O)cc1CN1CC2(CCOCC2)Oc2ncccc2S1(=O)=O,< 1 nM
14,Cc1ccc(C(CC(=O)O)c2ccn3c(C(F)(F)F)nnc3c2C)cc1CN1CC2CCC(F)(F)CN2c2ncccc2S1(=O)=O (stereo unspecified),< 1 nM
15,Cc1ccc([C@H](CC(=O)O)c2ccc3c(nnn3CC3CC3)c2C(F)F)cc1CN1C[C@H]2CCCCN2c2ncccc2S1(=O)=O,< 1 nM
16,Cc1ccc([C@@H](CC(=O)O)c2ccn3c(C(F)(F)F)nnc3c2C)cc1CN1C[C@H]2CCC(F)(F)CN2c2ncccc2S1(=O)=O,< 1 nM
17,Cc1ccc([C@@H](CC(=O)O)c2ccn3c(C(F)F)nnc3c2C)cc1CN1C[C@H]2CCCN2c2ncc(C#N)cc2S1(=O)=O,< 1 nM
18,Cc1ccc([C@H](c2ccn3c(C(F)(F)F)nnc3c2C)C(C)(C)C(=O)O)cc1CN1CC2(CCNCC2)Oc2ncccc2S1(=O)=O,> 10000 nM
19,Cc1ccc([C@H](CC(=O)O)c2ccn3c(C(F)F)nnc3c2C)cc1CN1C[C@H]2CCCN2c2ncccc2S1(=O)=O,< 1 nM
20,Cc1ccc(C(CC(=O)O)c2ccn3c(C(F)F)nnc3c2C)cc1CN1C[C@@H]2CCCCN2c2ncccc2S1(=O)=O (stereo partly specified),< 1 nM
21,Cc1cnc2c(c1)S(=O)(=O)N(Cc1nc([C@@H](c3ccn4c(C(F)F)nnc4c3C)C(C)(C)C(=O)O)ccc1C)CC1(COC1)O2,< 1 nM
22,Cc1ccc([C@@H](c2ccn3c(C(F)F)nnc3c2C)C(C)(C)C(=O)O)cc1CN1CC2(CC2)Oc2nc(OCCN3CCCCC3)c(C)cc2S1(=O)=O,< 1 nM

row,Compound,Kd
1,Cc1ccc([C@@H](c2ccn3c(C4CC4)nnc3c2C)C(C)(C)C(=O)O)cc1CN1CC2(CC2)Oc2nc(OCCN3CCCC3)c(C)cc2S1(=O)=O,< 1 nM
2,Cc1ccc(C(c2ccn3c(C(F)(F)F)nnc3c2C)C(C)(C)C(=O)O)cc1CN1CC2(CCOCC2)Oc2nc(OCCCO)ccc2S1(=O)=O (stereo unspecified),< 1 nM
3,Cc1ccc(C(CC(=O)O)c2ccn3c(C(F)F)nnc3c2C)cc1CN1CC2(CC2)Oc2ncc(Cl)cc2S1(=O)=O (stereo unspecified),< 1 nM
4,Cc1ccc(C(CC(=O)O)c2ccn3c(C(F)(F)F)nnc3c2C)nc1CN1C[C@@H]2CCCCN2c2ncccc2S1(=O)=O (stereo partly specified),< 1 nM
5,CC[C@@H]1CN(Cc2cc([C@H](CC(=O)O)c3ccn4c(C(F)(F)F)nnc4c3C)ccc2C)S(=O)(=O)c2cccnc2O1,< 1 nM
6,Cc1ccc([C@@H](CC(=O)O)c2ccc3c(nnn3CC3CC3)c2C)cc1CN1C[C@H]2CCCN2c2ncccc2S1(=O)=O,< 1 nM
7,Cc1ccc([C@@H](CC(=O)O)c2ccn3c(C(F)F)nnc3c2C)cc1CN1C[C@H]2CCCCN2c2ncc(C#N)cc2S1(=O)=O,< 1 nM
8,CC[C@@H]1CN(Cc2cc([C@@H](CC(=O)O)c3ccn4c(C(F)(F)F)nnc4c3C)ccc2C)S(=O)(=O)c2cccnc2O1,< 1 nM
9,Cc1ccc([C@@H](CC(=O)O)c2ccn3c(C(F)(F)F)nnc3c2C)nc1CN1C[C@@H]2CCCCN2c2ncccc2S1(=O)=O,< 1 nM
10,CCn1nnc2c(C)c(C(CC(=O)O)c3ccc(C)c(CN4C[C@H]5CCCN5c5ncccc5S4(=O)=O)n3)ccc21 (stereo partly specified),< 1 nM
11,CCn1nnc2c(C)c([C@H](CC(=O)O)c3ccc(C)c(CN4C[C@@H]5CCCCN5c5ncccc5S4(=O)=O)n3)ccc21,< 1 nM
12,Cc1ccc([C@@H](CC(=O)O)c2ccn3c(C(F)(F)F)nnc3c2C)nc1CN1CC2(COC2)Oc2ncccc2S1(=O)=O,< 1 nM
13,Cc1ccc([C@@H](CC(=O)O)c2ccn3c(C(F)(F)F)nnc3c2)cc1CN1C[C@@H]2CCCN2c2ncccc2S1(=O)=O,< 1 nM
14,Cc1ccc([C@H](CC(=O)O)c2ccn3c(C(F)(F)F)nnc3c2C)cc1CN1CC2(CC2)Oc2nc(N(C)CCCO)ccc2S1(=O)=O,< 1 nM
15,Cc1ccc([C@H](CC(=O)O)c2ccn3c(C(F)(F)F)nnc3c2C)cc1CN1CC2(CCOCC2)Oc2ncccc2S1(=O)=O,< 1 nM
16,Cc1ccc([C@@H](CC(=O)O)c2ccn3c(C(F)(F)F)nnc3c2C)nc1CN1C[C@@H]2CCCCN2c2ncc(Cl)cc2S1(=O)=O,< 1 nM
17,Cc1cnc2c(c1)S(=O)(=O)N(Cc1cc(C(c3ccc4c(nnn4C4CC4)c3C)C(C)(C)C(=O)O)cnc1C)CC1(CCOCC1)O2 (stereo unspecified),< 1 nM
18,Cc1ccc([C@@H](c2ccn3c(C(F)(F)F)nnc3c2C)C(C)(C)C(=O)O)cc1CN1CC2(CNC2)Oc2ncccc2S1(=O)=O,< 1 nM
19,CCc1nnc2c(C)c(C(CC(=O)O)c3ccc(C)c(CN4C[C@H]5CCCN5c5ncccc5S4(=O)=O)c3)ccn12 (stereo partly specified),< 1 nM
20,Cc1ccc([C@@H](CC(=O)O)c2ccn3c(C(F)(F)F)nnc3c2C)nc1CN1C[C@@H]2CCCCN2c2ncc(F)cc2S1(=O)=O,< 1 nM
21,CC[C@@H]1CN(Cc2cc(C(CC(=O)O)c3ccn4c(C(F)F)nnc4c3C)ccc2C)S(=O)(=O)c2cccnc2O1 (stereo partly specified),< 1 nM
22,Cc1cnc2c(c1)S(=O)(=O)N(Cc1cc([C@H](CC(=O)O)c3ccn4c(C(F)(F)F)nnc4c3C)ccc1Cl)CC1CCCCN21 (stereo partly specified),< 1 nM
